# Experimental data: ChEMBL document CHEMBL1130093, “Synthesis and nicotinic acetylcholine receptor binding properties of exo-2-(2'-fluoro-5'-pyridinyl)-7-azabicyclo-[2.2.1]heptane: a new positron emission tomography ligand for nicotinic receptors” (J Med Chem, 1997)
# Target: Neuronal acetylcholine receptor (Rattus norvegicus) (UniProt P04757+P09483+P12389+P12390+P12392+P43144+Q9JLB5+P12391+P43143+P20420+Q05941)
# Assay: Kapp value towards nicotinic acetylcholine receptor was obtained from three to four independent competition binding experiments using [3H]-NCEPB
# Type: protein-complex assay
row,Compound,K app
1,Fc1ccc([C@H]2CC3CCC2N3)cn1 (stereo partly drawn),0.02 nM
2,CN1CCC[C@H]1c1cccnc1,6.2 nM
3,Clc1ccc(C2CC3CC[C@H]2N3)cn1 (stereo partly drawn),0.024 nM
